In patent US20260284214A1, “EXATECAN DERIVATIVE AND ANTIBODY-DRUG CONJUGATE THEREOF” (priority 2023, published 2026):

Legend:
[1] = test system: BxPC-3 cells; assay: Cell inhibitory activity experiment of cytotoxic drug (CellTiter-Glo, 72 hours); type: cell-based, human; settings: Homo sapiens
Experimental: (§1) Human pancreatic adenocarcinoma cells BxPC-3 (ATCC, article number: CRL-1687) and human pharyngeal squamous cell carcinoma cells FaDu (ATCC, article number: HTB-43) were washed with PBS, then the cells were digested with 0.25% Trypsin-EDTA trypsin for about 3 minutes, and the digestion was terminated with a complete cell culture medium. The cells were centrifuged at 1000 rpm for 5 minutes, the supernatant was discarded, and the cells were resuspended with a complete cell culture medium, counted by a cell counter, and adjusted to a required density. Each well was added with 50 μL of the cell suspension according to 3000 cells per well, and the cell plate was placed into a 5% CO2 cell incubator at 37° C. to incubate the cells for 12-16 hours.
(§2) The cell plate was taken out of the incubator to observe a cell adhesion state, and after cell adhesion, each well was added with 50 μL of the sample (starting from 10 μM, diluted 5 times, 9 concentrations), shaken gently, and then placed into an incubator to incubate the cells for 72 hours. Each well was added with a Cell Titer-GLO™ (Promega, article number: G7572) working solution according to 100 μL/well and shaken gently to lyse the cells, and the plate was read on a microplate reader.
(§3) Data analysis: a graph was made by GraphPad Prism 7.0 software with a Log value of a sample concentration as an abscissa and Cytotoxicity % as an ordinate, and data were subjected to Nonlinear regression (curve fit) analysis to obtain an IC50 value of each compound.

[2] = test system: FaDu cells; assay: as above; type: cell-based, human; settings: Homo sapiens
Experimental: as §1, §2, §3

| Structure (SMILES) | IC50 [1] [nM] | IC50 [2] [nM] |
| --- | --- | --- |
| CC[C@@]1(O)C(=O)OCc2c1cc1n(c2=O)Cc2c-1nc1cc(F)c(C)c3c1c2[C@@H](NC(=O)N(CC#N)CCO)CC3 [Example 1, 1-(cyanomethyl)-3-((1S,9S)-9-ethyl-5-fluoro-9-hydroxy-4-methyl-10,13-dioxo-2,3,9,10,13,15-hexahydro-1H,12H-benzo[de]pyrano[3′,4′:6,7]indolizino[1,2-b]quinoline-1-yl)-1-(2-hydroxyethyl)urea] | 8.27 | 6.68 |
| CC[C@@]1(O)C(=O)OCc2c1cc1n(c2=O)Cc2c-1nc1cc(F)c(C)c3c1c2[C@@H](NC(=O)N[C@H]1C[C@@H](N)C1)CC3 [Example 16] | 7.93 | 4.33 |
| CC[C@@]1(O)C(=O)OCc2c1cc1n(c2=O)Cc2c-1nc1cc(F)c(C)c3c1c2[C@@H](NC(=O)O[C@H]1C[C@@H](N)C1)CC3 [Example 19, (1S,3R)-3-aminocyclobutyl((1S,9S)-9-ethyl-5-fluoro-9-hydroxy-4-methyl-10,13-dioxo-2,3,9,10,13,15-hexahydro-1H,12H-benzo[de]pyrano[3′,4′:6,7]indolizino[1,2-b]quinolin-1-yl)carbamate] | 3.69 | 3.97 |
| CC[C@@]1(O)C(=O)OCc2c1cc1n(c2=O)Cc2c-1nc1cc(F)c(C)c3c1c2[C@@H](NC(=O)N[C@H]1C[C@H](O)C1)CC3 [Example 12, 1-((1S,9S)-9-ethyl-5-fluoro-9-hydroxy-4-methyl-10,13-dioxo-2,3,9,10,13,15-hexahydro-1H,12H-benzo[de]pyrano[3′,4′:6,7]indolizino[1,2-b]quinolin-1-yl)-3-((1r,3S)-3-hydroxycyclobutyl)urea] | 5.77 | 42 |
| CC[C@@]1(O)C(=O)OCc2c1cc1n(c2=O)Cc2c-1nc1cc(F)c(C)c3c1c2[C@@H](NC(=O)NC1CNC1)CC3 [Example 18, 1-(azetidin-3-yl)-3-((1S,9S)-9-ethyl-5-fluoro-9-hydroxy-4-methyl-10,13-dioxo-2,3,9,10,13,15-hexahydro-1H,12H-benzo[de]pyrano[3′,4′:6,7]indolizino[1,2-b]quinolin-1-yl)urea] | 40.8 | 16.9 |
| CC[C@@]1(O)C(=O)OCc2c1cc1n(c2=O)Cc2c-1nc1cc(F)c(C)c3c1c2[C@@H](NC(=O)N(O)CCO)CC3 [Example 7, 3-((1S,9S)-9-ethyl-5-fluoro-9-hydroxy-4-methyl-10,13-dioxo-2,3,9,10,13,15-hexahydro-1H,12H-benzo[de]pyrano[3′,4′:6,7]indolizino[1,2-b]quinolin-1-yl)-1-hydroxy-1-(2-hydroxyethyl)urea] | 0.76 | < 0.1 |
| CC[C@@]1(O)C(=O)OCc2c1cc1n(c2=O)Cc2c-1nc1cc(F)c(C)c3c1c2[C@@H](NC(=O)N(C#N)CCO)CC3 [Example 9, 1-cyano-3-((1S,9S)-9-ethyl-5-fluoro-9-hydroxy-4-methyl-10,13-dioxo-2,3,9,10,13,15-hexahydro-1H,12H-benzo[de]pyrano[3′,4′:6,7]indolizino[1,2-b]quinolin-1-yl)-1-(2-hydroxyethyl)urea] | 2.15 | 2.34 |
| CC[C@@]1(O)C(=O)OCc2c1cc1n(c2=O)Cc2c-1nc1cc(F)c(C)c3c1c2[C@@H](NC(=O)N(CCO)OC)CC3 [Example 8, 3-((1S,9S)-9-ethyl-5-fluoro-9-hydroxy-4-methyl-10,13-dioxo-2,3,9,10,13,15-hexahydro-1H,12H-benzo[de]pyrano[3′,4′:6,7]indolizino[1,2-b]quinolin-1-yl)-1-(2-hydroxyethyl)-1-methoxyurea] | 1.45 | 0.13 |
| CC[C@@]1(O)C(=O)OCc2c1cc1n(c2=O)Cc2c-1nc1cc(F)c(C)c3c1c2[C@@H](NC(=O)N1CC(O)C1)CC3 [Example 10, N-((1S,9S)-9-ethyl-5-fluoro-9-hydroxy-4-methyl-10,13-dioxo-2,3,9,10,13,15-hexahydro-1H,12H-benzo[de]pyrano[3′,4′:6,7]indolizino[1,2-b]quinolin-1-yl)-3-hydroxyazetidine-1-carboxamide] | 5.1 | 6.04 |
| CC[C@@]1(O)C(=O)OCc2c1cc1n(c2=O)Cc2c-1nc1cc(F)c(C)c3c1c2[C@@H](NC(=O)N1CC[C@@H](O)C1)CC3 [Example 14, (R)—N-((1S,9S)-9-ethyl-5-fluoro-9-hydroxy-4-methyl-10,13-dioxo-2,3,9,10,13,15-hexahydro-1H,12H-benzo[de]pyrano[3′,4′:6,7]indolizino[1,2-b]quinolin-1-yl)-3-hydroxypyrrolidine-1-carboxamide] | 6.27 | 57.8 |
| CC[C@@]1(O)C(=O)OCc2c1cc1n(c2=O)Cc2c-1nc1cc(F)c(C)c3c1c2[C@@H](NC(=O)O[C@H]1C[C@H](N)C1)CC3 [Example 20, (1R,3S)-3-aminocyclobutyl((1S,9S)-9-ethyl-5-fluoro-9-hydroxy-4-methyl-10,13-dioxo-2,3,9,10,13,15-hexahydro-1H,12H-benzo[de]pyrano[3′,4′:6,7]indolizino[1,2-b]quinolin-1-yl)carbamate] | 3.05 | 2 |
| CC[C@@]1(O)C(=O)OCc2c1cc1n(c2=O)Cc2c-1nc1cc(F)c(C)c3c1c2[C@@H](NC(=O)N[C@H]1C[C@H](N)C1)CC3 [Example 17] | 4.04 | 2.26 |
| CC[C@@]1(O)C(=O)OCc2c1cc1n(c2=O)Cc2c-1nc1cc(F)c(C)c3c1c2[C@@H](NC(=O)OC1CNC1)CC3 [Example 21, azetidine-3-yl((1S,9S)-9-ethyl-5-fluoro-9-hydroxy-4-methyl-10,13-dioxo-2,3,9,10,13,15-hexahydro-1H,12H-benzo[de]pyrano[3′,4′:6,7]indolizino[1,2-b]quinolin-1-yl)carbamate] | 29.2 | 19.8 |
| CC[C@@]1(O)C(=O)OCc2c1cc1n(c2=O)Cc2c-1nc1cc(F)c(C)c3c1c2[C@@H](NC(=O)N1C[C@@H](O)CO1)CC3 [Example 5, (R)—N-((1S,9S)-9-ethyl-5-fluoro-9-hydroxy-4-methyl-10,13-dioxo-2,3,9,10,13,15-hexahydro-1H,12H-benzo[de]pyrano[3′,4′:6,7]indolizino[1,2-b]quinolin-1-yl)-4-hydroxyisoxazoline-2-carboxamide] | < 0.1 | 0.75 |
| CC[C@@]1(O)C(=O)OCc2c1cc1n(c2=O)Cc2c-1nc1cc(F)c(C)c3c1c2[C@@H](NC(=O)N1C[C@H](O)CO1)CC3 [Example 4, (S)—N-((1S,9S)-9-ethyl-5-fluoro-9-hydroxy-4-methyl-10,13-dioxo-2,3,9,10,13,15-hexahydro-1H,12H-benzo[de]pyrano[3′,4′:6,7]indolizino[1,2-b]quinolin-1-yl)-4-hydroxyisoxazolidine-2-carboxamide] | 1.84 | 2.95 |
| CC[C@@]1(O)C(=O)OCc2c1cc1n(c2=O)Cc2c-1nc1cc(F)c(C)c3c1c2[C@@H](NC(=O)N1CC[C@H](O)C1)CC3 [Example 13, (S)—N-((1S,9S)-9-ethyl-5-fluoro-9-hydroxy-4-methyl-10,13-dioxo-2,3,9,10,13,15-hexahydro-1H,12H-benzo[de]pyrano[3′,4′:6,7]indolizino[1,2-b]quinolin-1-yl)-3-hydroxypyrrolidine-1-carboxamide] | 2.49 | 36 |
| CC[C@@]1(O)C(=O)OCc2c1cc1n(c2=O)Cc2c-1nc1cc(F)c(C)c3c1c2[C@@H](NC(=O)N1CC(N)C1)CC3 [Example 15, 3-amino-N-((1S,9S)-9-ethyl-5-fluoro-9-hydroxy-4-methyl-10,13-dioxo-2,3,9,10,13,15-hexahydro-1H,12H-benzo[de]pyrano[3′,4′:6,7]indolizino[1,2-b]quinolin-1-yl) azetidine-1-carboxamide] | 20.5 | 11.4 |
